# Earlier results, collected in patent US12064400B1 (priority 2022, dated 2024).
# Tests used:
# [1] = in vivo
# [2] = in vivo; remark: listed apart in the source
Structure (SMILES),time in which a human body may absorb peak levels [1],higher risk for developing a bleed when taking naproxen [2],people in whom common and serious side effects may occur [2]
COc1ccc2cc([C@H](C)C(=O)O)ccc2c1 [naproxen],two to four,ten,three to nine
COc1ccc2cc([C@H](C)C(=O)O)ccc2c1 [naproxen sodium],one to two,,
